Data as given in patent publication US11667649B2, “Heteroaromatic macrocyclic ether chemotherapeutic agents” (Nuvalent, Inc., priority 2020, dated 2023).

Tested on: TPM3-NTRK1-wt IC50 / primary target (e.g. CD74-ROS1-wt) IC50, Ba/F3 cells
Experiment: Cell assay TRKA selectivity (TRKA potency divided by primary target potency)
Type: cell-based
Conditions: for TPM3-NTRK1-wt/EML4-ALK-L1196M-G1202R: TRKA selectivity ratio: TPM3-NTRK1-wt IC50 / EML4-ALK-L1196M-G1202R IC50, Ba/F3 cells; for TPM3-NTRK1-wt/CD74-ROS1-G2032R: TRKA selectivity ratio: TPM3-NTRK1-wt IC50 / CD74-ROS1-G2032R IC50, Ba/F3 cells; for TPM3-NTRK1-wt/CD74-ROS1-wt: TRKA selectivity ratio: TPM3-NTRK1-wt IC50 / CD74-ROS1-wt IC50, Ba/F3 cells; for TPM3-NTRK1-wt/EML4-ALK-wt: TRKA selectivity ratio: TPM3-NTRK1-wt IC50 / EML4-ALK-wt IC50, Ba/F3 cells
Outline: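 Ratio of TRKA to primary-target cellular IC50 (e.g. TPM3-NTRK1-wt/CD74-ROS1-wt), grouped into bins A >30, B >10, C ≥1, D <1. Each IC50 came from engineered Ba/F3 fusion lines grown without IL-3, dosed for 72 h and read as CellTiter-Glo luminescence, with a four-parameter logistic fit.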

Compound	TPM3-NTRK1-wt/EML4-ALK-L1196M-G1202R	TPM3-NTRK1-wt/CD74-ROS1-G2032R	TPM3-NTRK1-wt/CD74-ROS1-wt	TPM3-NTRK1-wt/EML4-ALK-wt
CCn1nc(C#N)c2c1-c1cnc(N)c(c1)O[C@H](C)c1cc(F)ccc1-c1nn(C)cc1C2 [Example 156, (19R)-22-amino-3-ethyl-16-fluoro-10,19-dimethyl-20-oxa-3,4,10,11,23-pentaazapentacyclo[19.3.1.0^2,^6.0^8,^12.0^13,^18]pentacosa-1(24),2(6),4,8,11,13,15,17,21(25),22-decaene-5-carbonitrile]	C (bin C for moderate selectivity, ratio≥1)	–	–	–
CCn1ncc2c1-c1cnc(N)c(c1)O[C@H](C)c1cc(F)ccc1-c1nn(C)c(OC)c1C2 [Example 157, (19R)-3-ethyl-16-fluoro-9-methoxy-10,19-dimethyl-20-oxa-3,4,10,11,23-pentaazapentacyclo[19.3.1.0^2,^6.0^8,^12.0^13,^18]pentacosa-1(24),2(6),4,8,11,13,15,17,21(25),22-decaen-22-amine]	C (bin C for moderate selectivity, ratio≥1)	A (bin A for very high selectivity, ratio>30-fold)	A (bin A for very high selectivity, ratio>30-fold)	A (bin A for very high selectivity, ratio>30-fold)
CCc1nn(CC)c2c1Cc1cn(C)nc1-c1ccc(F)cc1[C@@H](C)Oc1cc-2cnc1N [Example 158, (19R)-3,5-diethyl-16-fluoro-10,19-dimethyl-20-oxa-3,4,10,11,23-pentaazapentacyclo[19.3.1.0^2,^6.0^8,^12.0^13,^18]pentacosa-1(24),2(6),4,8,11,13,15,17,21(25),22-decaen-22-amine]	C (bin C for moderate selectivity, ratio≥1)	A (bin A for very high selectivity, ratio>30-fold)	A (bin A for very high selectivity, ratio>30-fold)	A (bin A for very high selectivity, ratio>30-fold)
C[C@H]1Oc2cc(cnc2N)-c2c(cnn2CC2(C)CC2)Cc2cn(C)nc2-c2ccc(F)cc21 [Example 159, (19R)-16-fluoro-10,19-dimethyl-3-[(1-methylcyclopropyl)methyl]-20-oxa-3,4,10,11,23-pentaazapentacyclo[19.3.1.0^2,^6.0^8,^12.0^13,^18]pentacosa-1(24),2(6),4,8,11,13,15,17,21(25),22-decaen-22-amine]	B (bin B for high selectivity, ratio>10-fold)	A (bin A for very high selectivity, ratio>30-fold)	A (bin A for very high selectivity, ratio>30-fold)	A (bin A for very high selectivity, ratio>30-fold)
C[C@H]1Oc2cc(cnc2N)-c2c(cnn2CC2CC2)Cc2cn(C(F)F)nc2-c2ccc(F)cc21 [Example 160, (19R)-3-(cyclopropylmethyl)-10-(difluoromethyl)-16-fluoro-19-methyl-20-oxa-3,4,10,11,23-pentaazapentacyclo[19.3.1.0^2,^6.0^8,^12.0^13,^18]pentacosa-1(24),2(6),4,8,11,13,15,17,21(25),22-decaen-22-amine]	A (bin A for very high selectivity, ratio>30-fold)	A (bin A for very high selectivity, ratio>30-fold)	A (bin A for very high selectivity, ratio>30-fold)	A (bin A for very high selectivity, ratio>30-fold)
CCn1ncc2c1-c1cnc(N)c(c1)O[C@H](C)c1cc(F)ccc1-c1onc(C)c1C2 [Example 161, (19R)-3-ethyl-16-fluoro-9,19-dimethyl-11,20-dioxa-3,4,10,23-tetraazapentacyclo[19.3.1.0^2,^6.0^8,^12.0^13,^18]pentacosa-1(24),2(6),4,8(12),9,13,15,17,21(25),22-decaen-22-amine]	D (bin D for low selectivity, ratio<1)	C (bin C for moderate selectivity, ratio≥1)	C (bin C for moderate selectivity, ratio≥1)	C (bin C for moderate selectivity, ratio≥1)
